Test results from ChEMBL document CHEMBL4390696, “Orientation preferences of hairpin pyrrole-imidazole polyamides toward mCGG site” (Bioorg Med Chem, 2019).

Assays:
[1] = Binding affinity to 5'-ATmCGGAT-3' DNA (unknown origin) in reverse orientation assessed as change in melting temperature at 5 uM by UV-vis spectrophotometry
[2] = Binding preference index, ratio of Kd for 5'-ATmCGGAT-3' DNA (unknown origin) to Kd for 5'-ATCGGAT-3' DNA (unknown origin)
[3] = Binding affinity to 5'-ATmCGGAT-3' DNA (unknown origin) assessed as association constant incubated for 180 secs by SPR analysis
[4] = Orientation preference, ratio of change in melting temperature of forward binding site of 5'-ATmCGGAT-3' DNA (unknown origin) to sum of change in melting temperature of forward binding site and change in melting temperature of reverse binding site for 5'-ATmCGGAT-3' DNA (unknown origin)
[5] = Binding affinity to 5'-ATCGGAT-3' DNA (unknown origin) assessed as dissociation rate constant incubated for 180 secs by SPR analysis
[6] = Binding affinity to 5'-ATmCGGAT-3' DNA (unknown origin) assessed as dissociation rate constant incubated for 180 secs by SPR analysis
[7] = Binding affinity to 5'-ATCGGAT-3' DNA (unknown origin) assessed as dissociation constant incubated for 180 secs by SPR analysis
[8] = Binding affinity to 5'-ATGGmCAT-3' DNA (unknown origin) in reverse orientation assessed as change in melting temperature at 5 uM by UV-vis spectrophotometry
[9] = Binding affinity to 5'-ATmCGGAT-3' DNA (unknown origin) assessed as dissociation constant incubated for 180 secs by SPR analysis
[10] = Binding affinity to 5'-ATCGGAT-3' DNA (unknown origin) assessed as association constant incubated for 180 secs by SPR analysis
[11] = Binding affinity to mCGG containing DNA assessed as inhibition of mouse TET1 catalytic domain binding to methylated 18 bp DNAs assessed as reduction in TET1-methylated DNA complex formation incubated for 30 mins by electrophoretic mobility shift assay
[12] = Orientation preference, ratio of change in melting temperature of forward binding site of 5'-ATGGmCAT-3' DNA (unknown origin) to sum of change in melting temperature of forward binding site and change in melting temperature of reverse binding site for 5'-ATGGmCAT-3' DNA (unknown origin)
[13] = Binding affinity to 5'-ATmCGGAT-3' DNA (unknown origin) in forward orientation assessed as change in melting temperature at 5 uM by UV-vis spectrophotometry
[14] = Binding affinity to 5'-ATGGmCAT-3' DNA (unknown origin) in forward orientation assessed as change in melting temperature at 5 uM by UV-vis spectrophotometry

ΔTm [1]	Ratio [2]	Ka [3]	Ratio [4]	Dissociation rate constant (koff) [5]	Dissociation rate constant (koff) [6]	Kd [7]	ΔTm [8]	Kd [9]	Ka [10]	IC50 ([11]; read-out: IC50)	Ratio [12]	ΔTm [13]	ΔTm [14]	IC50 [11]	Compound
20.8 °C	1.1	2.5 ×10⁶ /M/s	0.39	8.6 ×10⁻³ /s	5.8 ×10⁻³ /s	3.6 nM	13.3 °C	2.3 nM	2.4 ×10⁶ /M/s	120 nM					CC(=O)Nc1cc(C(=O)Nc2cn(C)c(C(=O)NCCC(=O)Nc3cc(C(=O)NCC[C@H](N)C(=O)Nc4cn(C)c(C(=O)Nc5cn(C)c(C(=O)NCCC(=O)Nc6cc(C(=O)NCCC(=O)NCCCN(C)C)n(C)c6)n5)n4)n(C)c3)n2)n(C)c1
16 °C	1	3.2 ×10⁶ /M/s	0.47	7.2 ×10⁻³ /s	5.3 ×10⁻³ /s	1.7 nM	17.9 °C	1.7 nM	4.2 ×10⁶ /M/s	170 nM					CC(=O)Nc1cc(C(=O)NCCC(=O)Nc2cn(C)c(C(=O)Nc3cc(C(=O)NCC[C@@H](N)C(=O)Nc4cc(C(=O)NCCC(=O)Nc5cn(C)c(C(=O)Nc6cn(C)c(C(=O)NCCC(=O)NCCCN(C)C)n6)n5)n(C)c4)n(C)c3)n2)n(C)c1
	0.9	1.2 ×10⁶ /M/s		1.5 ×10⁻¹ /s	1.6 ×10⁻¹ /s	150 nM		130 nM	9.7 ×10⁵ /M/s		0.59	7.6 °C	10.9 °C		CC(=O)Nc1cc(C(=O)Nc2cn(C)c(C(=O)Nc3cc(C(=O)Nc4cc(C(=O)NCCCC(=O)Nc5cn(C)c(C(=O)Nc6cn(C)c(C(=O)NCCC(=O)Nc7cc(C(=O)NCCC(=O)NCCCN(C)C)n(C)c7)n6)n5)n(C)c4)n(C)c3)n2)n(C)c1
	1.3	4.3 ×10³ /M/s		5.9 ×10⁻⁴ /s	2.6 ×10⁻⁴ /s	48 nM		61 nM	1.2 ×10⁴ /M/s		0.94	1.4 °C	21.5 °C	Not Active	CC(=O)Nc1cc(C(=O)Nc2cn(C)c(C(=O)Nc3cc(C(=O)Nc4cc(C(=O)NCCCC(=O)Nc5cn(C)c(C(=O)Nc6cn(C)c(C(=O)Nc7cc(C(=O)Nc8cc(C(=O)NCCC(=O)NCCCN(C)C)n(C)c8)n(C)c7)n6)n5)n(C)c4)n(C)c3)n2)n(C)c1
11.8 °C	0.9	7.4 ×10⁶ /M/s	0.42	8.9 ×10⁻² /s	6.6 ×10⁻² /s	9.8 nM	16.2 °C	8.9 nM	9 ×10⁶ /M/s						CC(=O)Nc1cc(C(=O)NCCC(=O)Nc2cn(C)c(C(=O)Nc3cc(C(=O)NCCCC(=O)Nc4cc(C(=O)NCCC(=O)Nc5cn(C)c(C(=O)Nc6cn(C)c(C(=O)NCCC(=O)NCCCN(C)C)n6)n5)n(C)c4)n(C)c3)n2)n(C)c1
5.9 °C	2.2	5.1 ×10⁵ /M/s	0.29	1.1 ×10⁻² /s	2.3 ×10⁻² /s	21 nM	14.8 °C	46 nM	5.2 ×10⁵ /M/s						CC(=O)Nc1cc(C(=O)Nc2cc(C(=O)Nc3cn(C)c(C(=O)Nc4cc(C(=O)NCCCC(=O)Nc5cc(C(=O)NCCC(=O)Nc6cn(C)c(C(=O)Nc7cn(C)c(C(=O)NCCC(=O)NCCCN(C)C)n7)n6)n(C)c5)n(C)c4)n3)n(C)c2)n(C)c1
18.1 °C	1.6	1.1 ×10⁶ /M/s	0.32	2.4 ×10⁻³ /s	3.2 ×10⁻³ /s	1.7 nM	8.6 °C	2.8 nM	1.4 ×10⁶ /M/s						CC(=O)Nc1cc(C(=O)Nc2cn(C)c(C(=O)NCCC(=O)Nc3cc(C(=O)NCCCC(=O)Nc4cn(C)c(C(=O)Nc5cn(C)c(C(=O)NCCC(=O)Nc6cc(C(=O)NCCC(=O)NCCCN(C)C)n(C)c6)n5)n4)n(C)c3)n2)n(C)c1
	4.1	3.2 ×10⁵ /M/s		1.2 ×10⁻¹ /s	2 ×10⁻¹ /s	150 nM		610 nM	8.2 ×10⁵ /M/s		0.54	10.8 °C	12.5 °C		CC(=O)Nc1cc(C(=O)Nc2cn(C)c(C(=O)NCCC(=O)Nc3cc(C(=O)NCCCC(=O)Nc4cn(C)c(C(=O)Nc5cn(C)c(C(=O)Nc6cc(C(=O)Nc7cc(C(=O)NCCC(=O)NCCCN(C)C)n(C)c7)n(C)c6)n5)n4)n(C)c3)n2)n(C)c1
1.6 °C			0.19				6.7 °C			2560 nM					CC(=O)Nc1cc(C(=O)Nc2cc(C(=O)Nc3cn(C)c(C(=O)Nc4cc(C(=O)NCCCC(=O)Nc5cc(C(=O)Nc6cc(C(=O)Nc7cn(C)c(C(=O)Nc8cn(C)c(C(=O)NCCC(=O)NCCCN(C)C)n8)n7)n(C)c6)n(C)c5)n(C)c4)n3)n(C)c2)n(C)c1
3.3 °C	0.9	3.1 ×10⁴ /M/s	0.2	1.9 ×10⁻² /s	1.5 ×10⁻² /s	530 nM	13.1 °C	480 nM	3.6 ×10⁴ /M/s						CC(=O)Nc1cc(C(=O)NCCC(=O)Nc2cn(C)c(C(=O)Nc3cc(C(=O)NCCCC(=O)Nc4cc(C(=O)Nc5cc(C(=O)Nc6cn(C)c(C(=O)Nc7cn(C)c(C(=O)NCCC(=O)NCCCN(C)C)n7)n6)n(C)c5)n(C)c4)n(C)c3)n2)n(C)c1
